The values that follow come from patent US9725460B2, “Oridonin analogs, compositions, and methods related thereto” (THE BOARD OF REGENTS OF THE UNIVERSITY OF TEXAS SYSTEM, priority 2013, dated 2017).

Values after ≈ are worked out from the molar mass of the structure shown. Read-outs that look alike come from different tables or passages of the source.

One data set concerns MCF-7. Kind of data set: MTT cancer cell proliferation assay, MCF-7. The settings on record: Homo sapiens. Type of data set: cell-based, human. The procedure, abridged: (§1)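 Cells seeded at 1×10^4/well and exposed 48 h to 0.01-100 μM compound (0.01, 0.1, 1, 5, 10, 100 μM) or DMSO. MTT added for a further 4 h, formazan dissolved in DMSO and OD read at 550 nm; quadruplicate wells per concentration. MCF-7 is ER-positive; MDA-MB-231 ER-negative, triple-negative.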

A further data set concerns Panc-1. Briefly: Cancer cell proliferation assay, Panc-1. It counts as cell-based. The conditions noted are these: Homo sapiens, PANC-1. Here is the method: (§2) In Vitro Determination of Effects of Synthesized Diterpenoids on Cancer Cell Proliferation. […] Then MTT solution was removed, and 150 μL of DMSO was added to each well. Absorbance of all wells was determined by measuring OD at 550 nm after a 10 min incubation on a 96-well GlowMaxate absorbance reader (Promega, Madison, Wis.). Each individual compound was tested in quadruplicate wells for each concentration.

The nature of data set [1]: Body weight and tolerability in xenograft mice. The settings on record: 5.0 mg/kg ip. The source says:
(§3) FIG. 14. […] Values are mean±SE of three independent experiments.
(§4) In pilot in vivo studies, this compound was further evaluated for its anticancer activity in suppression of tumor growth in the triple-negative breast cancer MDA-MB-231 xenograft model.

For data set [2], the system named is breast, pancreatic, and prostate cancer cell lines. Briefly: Anti-proliferation effects against cancer cell lines. It counts as cell-based, human. The conditions noted are these: summary of Tables 1 and 2. The procedure: (§5) In Vitro Determination of Effects of Synthesized Diterpenoids on Cancer Cell Proliferation. Breast cancer cell lines MCF-7, MDA-MB-231, […] and MCF/ADR were seeded in 96-well plates at a density of 1×10^4 cells/well and treated with DMSO and 0.01, 0.1, 1, 5, 10, and 100 μM of individual compound for 48 h, and then 20 μL of 3-(4,5-dimethylthiazol-2-yl)-2,5-diphenyltetrazolium bromide (MTT) (5 mg/mL in PBS) was added to each well and further incubated for another 4 h. Then MTT solution was removed, and 150 μL of DMSO was added to each well. Absorbance of all wells was determined by measuring OD at 550 nm after a 10 min incubation on a 96-well GlowMaxate absorbance reader (Promega, Madison, Wis.). Each individual compound was tested in quadruplicate wells for each concentration.

The subject of the next data set is AsPC1. Kind of data set: Cancer cell proliferation assay, AsPC1. Type of data set: cell-based. The conditions noted are these: Homo sapiens, ASPC1. Here is the method: as §2
Data set [3] deals with xenograft tumors (breast cancer MDA-MB-231). Briefly: MDA-MB-231 xenograft tumor growth in mice. Type of data set: in vivo. The settings on record: 5.0 mg/kg ip; triple-negative MDA-MB-231 xenograft; p<0.0001.
Description: as §3, §4

A further data set concerns DU145. Kind of data set: Cancer cell proliferation assay, DU145. It counts as cell-based. The settings on record: Homo sapiens, DU-145.
Another data set relates to MDA-MB-231. Briefly: MTT cancer cell proliferation assay, MDA-MB-231. Type of data set: cell-based, human. The settings on record: Homo sapiens. The gist of the method: as §1
Data set [4] relates to MCF-7/ADR. Kind of data set: MTT growth inhibition, drug-resistant MCF-7/ADR. The conditions noted are these: Homo sapiens, NCI/ADR-RES, 24 h, Table 1d; drug-resistant breast cancer cells; mean ± SE of three experiments. It counts as cell-based.
The next data set has as its system leukemia. The settings on record: 15 mg/kg; Zhou et al., Blood 2007; cited from earlier work.
Data set [5] has as its system MCF-7/ADR. Briefly: MTT growth inhibition, drug-resistant MCF-7/ADR. It counts as cell-based, human. The settings on record: Homo sapiens, NCI/ADR-RES, 48 h, Table 3; adriamycin-resistant; MTT 48 h; mean ± SE of three experiments. The procedure:
as §5
(§6) The growth inhibitory effects of the newly generated pyran-fused diterpenoids were evaluated in four breast cancer cell lines MCF-7 (ER-positive), MDAMB-231 (ER-negative and triple-negative), MDA-MB-468 (ER-negative and triple-negative) as well as MCF-7/ADR (adriamycin-resistant) using MTT assays as described in the Experimental Section. The capability of these new molecules to inhibit the growth of cancer cells was summarized in Table 3 and compared with that of adriamycin and 1 spontaneously.

Data set [6] deals with acute myeloid leukemic cells. The settings on record: Zhou et al., Blood 2007; read-out: IC50, induction of mitochondrial apoptosis; cited from earlier work.
A short description of another data set: Aqueous solubility. Type of data set: physicochemical. The conditions noted are these: water; compound as such; read-out: Aqueous solubility.
The test system of a further data set is MDA-MB-468. Kind of data set: MTT cancer cell proliferation assay, MDA-MB-468. The settings on record: Homo sapiens, MDA-MB-468, 48 h, Table 3; pyran-fused diterpenoids; MTT 48 h; mean ± SE of three experiments. It counts as cell-based, human. The procedure:
as §5, §6

The mark [7] stands for this setting: MCF7, Table 1a, breast cancer, read-out: IC50 (μM) MCF-7.
The mark [8] stands for this setting: MCF7, Table 2b, mean of at least three experiments, read-out: Effect on proliferation MCF-7 (ER positive) (IC50).
[9] abbreviates: Table 1a, pancreatic cancer, read-out: IC50 (μM) Panc-1.
The mark [10] stands for this setting: Table 2b, mean of at least three experiments, read-out: Effect on proliferation Panc-1 (IC50).
The mark [11] stands for this setting: Table 1a, pancreatic cancer, read-out: IC50 (μM) AsPC1.
[12] abbreviates: Table 2b, mean of at least three experiments, read-out: Effect on proliferation AsPC1 (IC50).
Where [13] appears, read: Table 1a, prostate cancer, read-out: IC50 (μM) DU145.
The mark [14] stands for this setting: Table 2b, mean of at least three experiments, read-out: Effect on proliferation DU145 (IC50).
[15] abbreviates: MDA-MB-231, Table 1a, breast cancer, read-out: IC50 (μM) MDA-MB-231.
The mark [16] stands for this setting: MDA-MB-231, Table 2b, mean of at least three experiments, read-out: Effect on proliferation MDA-MB-231 (ER negative) (IC50).
Setting [17] is: MCF7, Table 1c, dienone analogues, mean ± SE of three experiments, read-out: Antiproliferative effect MCF-7 (IC50).
[18] abbreviates: MCF7, Table 2a, A-ring modified analogues, read-out: IC50 (μM) MCF-7.
[19] abbreviates: Table 2a, A-ring modified analogues, read-out: IC50 (μM) Panc-1.
Where [20] appears, read: Table 2a, A-ring modified analogues, read-out: IC50 (μM) AsPC1.
Where [21] appears, read: MDA-MB-231, Table 1c, dienone analogues, mean ± SE of three experiments, read-out: Antiproliferative effect MDA-MB-231 (IC50).
Where [22] appears, read: MDA-MB-231, Table 2a, A-ring modified analogues, read-out: IC50 (μM) MDA-MB-231.

As to `C=CCNc1nc2c(s1)CC(C)(C)[C@H]1[C@H](O)[C@@]3(O)OC[C@@]21[C@@H]1CC[C@H]2C(=C)C(=O)[C@]13[C@@H]2O` [CYD-6-18, (5aR,6S,7S,7aR,10S,12aS,12bR,15R)-2-(allylamino)-6,7,15-trihydroxy-5,5-dimethyl-9-methylene-5,5a,6,7,10,11,12,12a-octahydro-4H-7,12b-(epoxymethano)-7a,10-methanocyclohepta[7,8]naphtho[1,2-d]thiazol-8(9H)-one], the IC50 with MCF-7 (setting [7]) came to 0.18 µM; in the data set with MCF-7 (setting [8]), 0.2 µM; in the data set with Panc-1 (setting [9]), 1.1 µM; with Panc-1 (setting [10]), 1.1 µM; in the data set on AsPC1 (setting [11]), 1.05 µM; in the data set with AsPC1 (setting [12]), 1.1 µM. The IC50 in the data set on DU145 (setting [13]) was 1.18 µM; in the data set on DU145 (setting [14]), 1.2 µM; with MDA-MB-231 (setting [15]), 0.18 µM; in the data set with MDA-MB-231 (setting [16]) it was 0.2 µM. Further, in [1], the “Loss of body weight” value is “no significant loss of body weight”. Besides, the “Tolerability during the experiments” value in data set [1] is listed as “tolerated”. Further, the “IC50 values, anti-proliferation effects against cancer cell lines” value in data set [2] was “low micromolar to nanomolar”. The “Inhibition of xenograft tumor growth compared to oridonin at the same dose” value in data set [3] is recorded as “much better effect in inhibiting tumor growth”.
In the case of `C=C1C(=O)[C@@]23[C@@H]4OC(C)(C)OC25OC[C@]2(C(=O)C=CC(C)(C)[C@H]2[C@@H]5O)[C@@H]3CC[C@@H]14` [CYD-6-25, (3S,3aR,3a^1R,6aR,7S,7aR,11aS,11bS)-7-hydroxy-5,5,8,8-tetramethyl-15-methylene-3,3a,7,7a,8,11b-hexahydro-1H-6a,11a-(epoxymethano)-3,3a^1-ethanophenanthro[1,10-de][1,3]dioxine-11,14(2H)-dione], the IC50 turned out to be 0.56 ± 0.31 µM in the data set with MCF-7 (setting [17]); 1.1 µM with MCF-7 (setting [18]); 5.03 ± 1.91 µM with MCF-7/ADR [4]; 7.93 µM with Panc-1 (setting [19]); 8.82 µM in the data set on AsPC1 (setting [20]); 3.49 ± 1.21 µM with MDA-MB-231 (setting [21]). In the data set on MDA-MB-231 (setting [22]), the IC50 is 5.6 µM.
In the case of `C=C1C(=O)[C@]23[C@H](O)[C@H]1CC[C@H]2[C@@]12CO[C@]3(O)[C@@H](O)[C@@H]1C(C)(C)C=CC2=O` [CYD-6-58, (4aR,5S,6S,6aR,9S,11aS,11bS,14R)-5,6,14-trihydroxy-4,4-dimethyl-8-methylene-4,4a,5,6,9,10,11,11a-octahydro-1H-6,11b-(epoxymethano)-6a,9-methanocyclohepta[a]naphthalene-1,7(8H)-dione], the IC50 is 1.31 ± 0.25 µM with MCF-7 (setting [17]); 0.95 µM in the data set on MCF-7 (setting [18]); 5.82 ± 2.12 µM in the data set on MCF-7/ADR [4]; above 10 µM with Panc-1 (setting [19]); 2.99 µM in the data set with AsPC1 (setting [20]); 2.23 ± 0.68 µM with MDA-MB-231 (setting [21]). Besides, in the data set with MDA-MB-231 (setting [22]), the IC50 amounted to 3.56 µM.
As for `C=C1C(=O)[C@@]23[C@@H]4OC(C)(C)OC25OC[C@]2(C(=O)C(C=O)=CC(C)(C)[C@H]2[C@@H]5O)[C@@H]3CC[C@@H]14` [CYD-6-92, (3S,3aR,3a^1R,6aR,7S,7aR,11aS,11bS)-7-hydroxy-5,5,8,8-tetramethyl-15-methylene-11,14-dioxo-2,3,3a,7,7a,8,11,11b-octahydro-1H-6a,11a-(epoxymethano)-3,3a^1-ethanophenanthro[1,10-de][1,3]dioxine-10-carbaldehyde], the IC50 in the data set with MCF-7 (setting [17]) worked out at 1.28 ± 0.47 µM; with MCF-7 (setting [18]) it was 1.46 µM; with MCF-7/ADR [4], 6.55 ± 0.96 µM; in the data set on Panc-1 (setting [19]), 5.35 µM; with AsPC1 (setting [20]), 3.57 µM; in the data set with MDA-MB-231 (setting [21]), 3.46 ± 1.33 µM. The IC50 in the data set with MDA-MB-231 (setting [22]) is 6.09 µM. The “IC50 values, anti-proliferation effects against cancer cell lines” value in data set [2] is recorded as “low micromolar to nanomolar”.
One may read the solubility as the concentration that dissolves in the medium under given conditions. For `C=C1C(=O)[C@]23[C@H](O)[C@H]1CC[C@H]2[C@@]12COC3(O)[C@@H](O)[C@@H]1C(C)(C)CC[C@@H]2O` [Oridonin], the IC50 in the data set with MCF-7 (MCF7, 48 h, Table 3, pyran-fused diterpenoids, MTT 48 h, mean ± SE of three experiments, read-out: IC50 (μM) MCF-7) worked out at 4.36 ± 1.41 µM; in the data set with MCF-7 (setting [7]), 6.64 µM; with MCF-7 (MCF7, Table 1b, triazole substituted analogues, mean of three experiments, read-out: IC50 (μM) MCF-7), 6.6 µM; in the data set on MCF-7 (setting [17]), 4.36 ± 1.41 µM; in the data set on MCF-7 (setting [18]), 6.64 µM; with MCF-7 (setting [8]), 6.6 µM. Also, the IC50 in the data set with MCF-7/ADR [4] is above 30 µM; with Panc-1 (setting [9]) it was 13.4 µM; with Panc-1 (setting [10]), 15.6 µM; in the data set on MCF-7/ADR [5], 34.8 ± 2.54 µM; in data set [6], 2 µM; in the data set on AsPC1 (setting [11]), 34.5 µM. The IC50 in the data set on AsPC1 (setting [12]) is 19.3 µM; in the data set with DU145 (setting [13]), 14.2 µM; in the data set with DU145 (setting [14]) it was 14.2 µM; with MDA-MB-468, 5.33 ± 1.36 µM; in the data set on MDA-MB-231 (MDA-MB-231, 48 h, Table 3, pyran-fused diterpenoids, MTT 48 h, mean ± SE of three experiments, read-out: IC50 (μM) MDA-MB-231), 28 ± 1.4 µM; in the data set with MDA-MB-231 (setting [15]), 29.4 µM. In addition, the IC50 with MDA-MB-231 (MDA-MB-231, Table 1b, triazole substituted analogues, mean of three experiments, read-out: IC50 (μM) MDA-MB-231) was found to be 29.4 µM; in the data set on MDA-MB-231 (setting [21]), 28 ± 1.4 µM; in the data set on MDA-MB-231 (setting [22]) it was 29.4 µM; in the data set with MDA-MB-231 (setting [16]) it was 29.4 µM. The “Anti-leukemia activities in murine models” value in the data set on leukemia is reported as “substantial anti-leukemia activities with a low side-effect”. The solubility in “Aqueous solubility” was 1290 µg/mL (≈ 3.54 mM).
